Data from patent US10369149B2, “4-(2-amino-tetrahydronaphthalenyl)pyrimidine derivative, preparation method therefor, and pharmaceutical composition for preventing or treating cancer, containing same as active ingredient” (KOREA RESEARCH INSTITUTE OF CHEMICAL TECHNOLOGY, priority 2015, dated 2019).
Counter-ions that a name gives are not always drawn. Like-named read-outs stand apart in the source and are kept apart here.

Key:
[1] = target: ALK enzyme (Homo sapiens, UniProt Q9UM73); assay: Anaplastic lymphoma kinase (ALK) inhibitory activity, HTRF kinase assay; assay type: biochemical
[2] = test system: ALK L1196M cells containing ALK enzyme; assay: ALK inhibitory activity in ALK L1196M cells, SRB staining of live cells; assay type: cell-based
Method: DMSO (dimethylsulfoxide) was added to the well that was not loaded with the compound by the same amount as the compound. Three days after the addition of the compound, DMEM was eliminated. 10% TCA (trichloroacetic acid) was added to fix the cells. The wells were washed with running water three times and the live cells were stained with SRB solution (1× sulphorodamine B). Then, OD was measured to calculate the population of the live cells. IC50 of the experimental compound used in the experiment above was calculated by using prism software (Version 5.01, Graphpad). […] Table 2 presents the ALK inhibitory activity of the compounds of the examples of the present invention in ALK L1196M containing ALK enzyme.

[3] = test system: H3122, the non-small cell lung cancer cell line; assay: ALK inhibitory activity in H3122, SRB staining of live cells; assay type: cell-based; settings: Homo sapiens
Method: […] One day later, the compound of the present invention was added to each well at different concentrations of 10 μM, 2 μM, 0.4 μM, 0.08 μM, […], and 0.00032 μM. DMSO (dimethylsulfoxide) was added to the well that was not loaded with the compound by the same amount as the compound. Three days after the addition of the compound, DMEM was eliminated. 10% TCA (trichloroacetic acid) was added to fix the cells. The wells were washed with running water three times and the live cells were stained with SRB solution (1× sulphorodamine B). Then, OD was measured to calculate the population of the live cells. IC50 of the experimental compound used in the experiment above was calculated by using prism software (Version 5.01, Graphpad).
Table 2 presents the ALK inhibitory activity of the compounds of the examples of the present invention in H3122 containing ALK enzyme.

[4] = target: Ba/F3 EML4-ALK L1196M (Homo sapiens, UniProt Q9UM73, L1196M, cells depend on it); assay: ALK inhibitory activity in Ba/F3 EML4-ALK L1196M, SRB staining of live cells; settings: read-out: Ba/F3 EML4-ALK L1196M, three days
Method: Particularly, 4,000 ALK L1196M cells containing ALK enzyme were distributed in each well of a 96 well plate together with 100 μl of DMEM (Dulbecco's Modified Eagle's Medium). […] DMSO (dimethylsulfoxide) was added to the well that was not loaded with the compound by the same amount as the compound. Three days after the addition of the compound, DMEM was eliminated. 10% TCA (trichloroacetic acid) was added to fix the cells. The wells were washed with running water three times and the live cells were stained with SRB solution (1× sulphorodamine B). Then, OD was measured to calculate the population of the live cells.

[5] = 72 h, ALK L1196M cells, three days, SRB, read-out: ALK L1196M
[6] = NCI-H3122, 72 h, three days, SRB, read-out: Non-small cell lung cancer cell line H3122
[7] = NCI-H3122, read-out: ALK inhibitory activity in H3122 containing ALK enzyme at the concentration range

Sequence of ALK enzyme (Q9UM73 19-1620): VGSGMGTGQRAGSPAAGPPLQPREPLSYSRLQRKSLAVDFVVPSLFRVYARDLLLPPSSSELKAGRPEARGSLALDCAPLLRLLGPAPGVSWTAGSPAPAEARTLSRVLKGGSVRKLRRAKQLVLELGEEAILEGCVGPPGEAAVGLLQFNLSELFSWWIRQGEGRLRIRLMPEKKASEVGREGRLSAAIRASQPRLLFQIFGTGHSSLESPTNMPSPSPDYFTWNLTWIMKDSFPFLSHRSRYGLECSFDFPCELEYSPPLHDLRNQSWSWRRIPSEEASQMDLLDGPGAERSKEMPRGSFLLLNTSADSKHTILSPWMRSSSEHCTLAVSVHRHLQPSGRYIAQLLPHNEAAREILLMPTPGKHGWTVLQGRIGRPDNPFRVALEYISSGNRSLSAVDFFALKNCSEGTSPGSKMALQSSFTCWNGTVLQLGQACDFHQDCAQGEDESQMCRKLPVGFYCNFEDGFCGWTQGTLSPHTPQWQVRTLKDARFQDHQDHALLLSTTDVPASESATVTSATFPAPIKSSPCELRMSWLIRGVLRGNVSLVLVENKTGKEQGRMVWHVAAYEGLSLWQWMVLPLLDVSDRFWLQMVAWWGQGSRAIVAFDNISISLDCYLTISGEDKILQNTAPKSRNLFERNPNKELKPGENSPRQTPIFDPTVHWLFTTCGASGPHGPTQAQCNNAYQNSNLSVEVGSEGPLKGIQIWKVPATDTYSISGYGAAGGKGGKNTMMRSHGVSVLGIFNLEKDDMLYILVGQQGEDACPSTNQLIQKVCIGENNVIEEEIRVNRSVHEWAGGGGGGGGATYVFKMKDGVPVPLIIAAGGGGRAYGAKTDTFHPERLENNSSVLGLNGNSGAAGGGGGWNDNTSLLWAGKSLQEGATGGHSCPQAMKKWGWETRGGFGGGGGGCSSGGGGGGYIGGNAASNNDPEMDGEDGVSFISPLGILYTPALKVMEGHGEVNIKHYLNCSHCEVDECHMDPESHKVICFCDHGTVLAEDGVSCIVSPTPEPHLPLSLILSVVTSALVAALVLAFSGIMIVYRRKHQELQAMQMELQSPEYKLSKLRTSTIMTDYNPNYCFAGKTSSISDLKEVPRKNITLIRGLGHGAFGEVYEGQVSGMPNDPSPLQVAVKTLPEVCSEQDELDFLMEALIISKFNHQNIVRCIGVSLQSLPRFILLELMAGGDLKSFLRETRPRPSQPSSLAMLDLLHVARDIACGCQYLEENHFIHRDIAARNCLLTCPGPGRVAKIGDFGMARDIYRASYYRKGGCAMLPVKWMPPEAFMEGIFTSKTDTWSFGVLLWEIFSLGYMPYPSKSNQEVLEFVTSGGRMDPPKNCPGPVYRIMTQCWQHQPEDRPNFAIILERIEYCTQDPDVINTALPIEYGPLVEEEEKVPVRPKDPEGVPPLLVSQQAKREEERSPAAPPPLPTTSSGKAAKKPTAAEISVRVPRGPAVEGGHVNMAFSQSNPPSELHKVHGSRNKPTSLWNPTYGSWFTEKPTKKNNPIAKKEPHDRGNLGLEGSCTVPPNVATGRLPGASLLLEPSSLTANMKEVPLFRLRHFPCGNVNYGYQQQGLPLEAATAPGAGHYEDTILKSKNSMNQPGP
Sequence of Ba/F3 EML4-ALK L1196M (Q9UM73 whole entry L1196M): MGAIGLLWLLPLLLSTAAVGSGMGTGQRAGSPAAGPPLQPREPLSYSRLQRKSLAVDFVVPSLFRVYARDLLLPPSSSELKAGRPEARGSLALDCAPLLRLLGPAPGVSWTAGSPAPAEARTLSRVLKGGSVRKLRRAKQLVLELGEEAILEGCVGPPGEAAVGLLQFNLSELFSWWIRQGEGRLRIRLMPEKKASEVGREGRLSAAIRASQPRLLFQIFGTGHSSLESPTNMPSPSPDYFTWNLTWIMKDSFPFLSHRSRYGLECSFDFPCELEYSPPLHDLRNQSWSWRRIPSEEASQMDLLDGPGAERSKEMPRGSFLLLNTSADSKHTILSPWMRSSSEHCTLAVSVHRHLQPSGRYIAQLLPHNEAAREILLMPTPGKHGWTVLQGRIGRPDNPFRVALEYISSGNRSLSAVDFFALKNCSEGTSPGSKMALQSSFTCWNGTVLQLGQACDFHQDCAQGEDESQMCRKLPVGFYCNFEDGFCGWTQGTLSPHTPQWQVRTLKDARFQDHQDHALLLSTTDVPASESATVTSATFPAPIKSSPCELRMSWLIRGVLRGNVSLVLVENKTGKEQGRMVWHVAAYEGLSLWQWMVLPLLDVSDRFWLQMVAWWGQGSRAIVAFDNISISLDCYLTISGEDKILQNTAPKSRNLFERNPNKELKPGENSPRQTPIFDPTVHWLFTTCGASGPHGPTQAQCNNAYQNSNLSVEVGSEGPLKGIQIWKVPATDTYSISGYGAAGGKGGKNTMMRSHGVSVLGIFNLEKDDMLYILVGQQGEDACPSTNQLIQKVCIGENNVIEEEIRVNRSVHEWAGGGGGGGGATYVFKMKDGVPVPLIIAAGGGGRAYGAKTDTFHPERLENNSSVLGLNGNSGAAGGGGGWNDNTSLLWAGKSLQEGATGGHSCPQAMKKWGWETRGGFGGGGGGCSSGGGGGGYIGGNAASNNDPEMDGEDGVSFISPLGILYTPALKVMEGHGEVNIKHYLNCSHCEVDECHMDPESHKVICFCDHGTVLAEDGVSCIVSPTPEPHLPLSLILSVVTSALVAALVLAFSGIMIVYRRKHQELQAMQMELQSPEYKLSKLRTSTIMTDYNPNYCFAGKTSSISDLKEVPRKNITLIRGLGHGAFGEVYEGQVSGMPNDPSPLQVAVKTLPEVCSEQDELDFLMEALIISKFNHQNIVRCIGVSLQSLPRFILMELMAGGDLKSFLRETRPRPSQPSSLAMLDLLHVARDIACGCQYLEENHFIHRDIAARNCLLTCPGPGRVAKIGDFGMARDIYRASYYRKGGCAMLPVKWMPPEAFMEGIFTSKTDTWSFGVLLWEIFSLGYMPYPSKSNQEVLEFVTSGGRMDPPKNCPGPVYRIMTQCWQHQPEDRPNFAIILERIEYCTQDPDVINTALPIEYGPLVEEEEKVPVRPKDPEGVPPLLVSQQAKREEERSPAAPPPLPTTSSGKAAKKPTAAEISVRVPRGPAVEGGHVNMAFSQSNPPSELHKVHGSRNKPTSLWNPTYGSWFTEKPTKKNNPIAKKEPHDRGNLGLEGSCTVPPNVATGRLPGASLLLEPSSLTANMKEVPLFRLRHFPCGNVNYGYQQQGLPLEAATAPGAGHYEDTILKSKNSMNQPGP

Compound	IC50 ([1]; HTRF, read-out: ALK) [µM]	IC50 ([1]; read-out: anaplastic lymphoma kinase (ALK) inhibitory activity at the concentration) [µM]	IC50 [3, 6] [µM]	IC50 [3, 7] [µM]	GI50 [4] [µM]	IC50 [2, 5] [µM]	IC50 ([2]; ALK L1196M cells, read-out: ALK inhibitory activity in ALK L1196M containing ALK enzyme at the concentration) [µM]	IC50 ([2]; 72 h, read-out: ALK L1196M) [µM]
COc1cc2c(cc1Nc1ncc(Cl)c(Nc3ccccc3S(=O)(=O)C(C)C)n1)CCC(N1CCOCC1)C2 (centres unmarked) [Example 1, 5-chloro-N4-(2-(isopropylsulfonyl)phenyl)-N2-(3-methoxy-6-morpholino-5,6,7,8-tetrahydronaphthalene-2-yl)pyrimidine-2,4-diamine]	< 0.01	≤ 0.01	0.01 to 0.1	0.01 to 0.1	0.01 to 0.1	0.01 to 0.1	–	–
COc1cc2c(cc1Nc1ncc(Cl)c(Nc3ccccc3S(=O)(=O)C(C)C)n1)CCC(N1CCNCC1)C2 (centres unmarked) [Example 2, 5-chloro-N4-(2-(isopropylsulfonyl)phenyl)-N2-(3-methoxy-6-(piperazine-1-yl)-5,6,7,8-tetrahydronaphthalene-2-yl)pyrimidine-2,4-diamine]	–	–	0.01 to 0.1	0.01 to 0.1	–	< 0.01	≤ 0.01	–
COc1cc2c(cc1Nc1ncc(Cl)c(Nc3ccccc3S(=O)(=O)C(C)C)n1)C(=O)C(N1CCOCC1)CC2 (centres unmarked) [Example 3, 7-(5-chloro-4-(2-(isopropylsulfonyl)phenylamino)pyrimidine-2-ylamino)6-methoxy-2-morpholino-3,4-dihydronaphthalene-1(2H)-one]	0.01 to 0.1	–	> 0.1	–	> 0.1	–	–	> 0.1
COc1cc2c(cc1Nc1ncc(Cl)c(Nc3ccccc3S(=O)(=O)C(C)C)n1)CCC(NC(=O)C(F)(F)F)C2(C)C (centres unmarked) [Example 4, N-(6-(5-chloro-4-(2-(isopropylsulfonyl)phenylamino)pyrimidine-2-ylamino)-7-methoxy-1,1-dimethyl-1,2,3,4-tetrahydronaphthalene-2-yl)-2,2,2-trifluoroacetamide]	> 0.1	–	> 0.1	–	> 0.1	> 0.1	–	–
COc1cc2c(cc1Nc1ncc(Cl)c(Nc3ccccc3S(=O)(=O)C(C)C)n1)CC/C(=N\NC(C)=O)C2(C)C [Example 9, (E)-N-(6-(5-chloro-4-(2-(isopropylsulfonyl)phenylamino)pyrimidine-2-ylamino)-7-methoxy-1,1-dimethyl-3,4-dihydronaphthalene-2(1H)-yladene)acetohydrazide]	0.01 to 0.1	–	> 0.1	–	> 0.1	0.01 to 0.1	–	–
COc1cc2c(cc1Nc1ncc(Cl)c(Nc3ccccc3S(=O)(=O)C(C)C)n1)CC/C(=N\NC(N)=O)C2(C)C [Example 10, (E)-2-(6-(5-chloro-4-(2-(isopropylsulfonyl)phenylamino)pyrimidine-2-ylamino)-7-methoxy-1,1-dimethyl-3,4-dihydronaphthalene-2(1H)-yladene)hydrogencarboxamide]	0.01 to 0.1	–	> 0.1	–	> 0.1	0.01 to 0.1	–	–
COc1cc2c(cc1Nc1ncc(Cl)c(Nc3ccccc3S(=O)(=O)C(C)C)n1)C(C)(C)/C(=N/O)CC2 [Example 16, (E)-7-(5-chloro-4-(2-(isopropylsulfonyl)phenylamino)pyrimidine-2-ylamino)-6-methoxy-1,1-dimethyl-3,4-dihydronaphthalene-2(1H)-one oxime]	> 0.1	–	> 0.1	–	> 0.1	> 0.1	–	–
COc1cc2c(cc1Nc1ncc(Cl)c(Nc3ccccc3S(=O)(=O)C(C)C)n1)CCC(NC=N)C2(C)C (centres unmarked) [Example 29, N-(6-((5-chloro-4-((2-(isopropylsulfonyl)phenyl)amino)pyridine-2-yl)amino)-7-methoxy-1,1-dimethyl-1,2,3,4-tetrahydronaphthalene-2yl)formimideamide]	–	–	0.01 to 0.1	–	> 0.1	< 0.01	–	–
COc1cc2c(cc1Nc1ncc(Cl)c(Nc3ccccc3S(=O)(=O)C(C)C)n1)CCC(NC(C)=N)C2(C)C (centres unmarked) [Example 30]	–	–	0.01 to 0.1	–	> 0.1	< 0.01	–	–
COc1cc2c(cc1Nc1ncc(Cl)c(Nc3ccccc3S(=O)(=O)C(C)C)n1)CCC(NC(=N)N)C2(C)C (centres unmarked) [Example 31]	–	–	> 0.1	–	> 0.1	< 0.01	–	–

Second part, led by results:

IC50 ([1]; HTRF, read-out: ALK) [µM]	IC50 ([1]; read-out: anaplastic lymphoma kinase (ALK) inhibitory activity at the concentration) [µM]	IC50 [3, 6] [µM]	IC50 [3, 7] [µM]	GI50 [4] [µM]	Compound	IC50 [2, 5] [µM]	IC50 ([2]; ALK L1196M cells, read-out: ALK inhibitory activity in ALK L1196M containing ALK enzyme at the concentration) [µM]	IC50 ([2]; 72 h, read-out: ALK L1196M) [µM]
–	–	0.01 to 0.1	0.01 to 0.1	–	COc1cc2c(cc1Nc1ncc(Cl)c(Nc3ccccc3S(=O)(=O)C(C)C)n1)CCC(=O)C2(C)C [Example 5, 6-(5-chloro-4-(2-(isopropylsulfonyl)phenylamino)pyrimidine-2-ylamino)-7-methoxy-1,1-dimethyl-3,4-dihydronaphthalene-2(1H)-one]	–	–	–
–	–	> 0.1	–	–	COc1cc2c(cc1Nc1ncc(Cl)c(Nc3ccccc3S(=O)(=O)C(C)C)n1)C(C)(C)C(=O)CC2 [Example 6, 7-(5-chloro-4-(2-(isopropylsulfonyl)phenylamino)pyrimidine-2-ylamino)-6-methoxy-1,1-dimethyl-3,4-dihydronaphthalene-2(1H)-one]	–	–	–
> 0.1	–	> 0.1	–	> 0.1	COc1cc2c(cc1Nc1ncc(Cl)c(Nc3ccccc3S(=O)(=O)C(C)C)n1)C(C)(C)C(NC(=O)C(F)(F)F)CC2 (centres unmarked) [Example 7, N-(7-(5-chloro-4-(2-(isopropylsulfonyl)phenylamino)pyrimidine-2-ylamino)-6-methoxy-1,1-dimethyl-1,2,3,4-tetrahydronaphthalene-2-yl)-2,2,2-trifluoroacetamide]	> 0.1	–	–
> 0.1	–	> 0.1	–	> 0.1	COc1cc2c(cc1Nc1ncc(Cl)c(Nc3ccccc3S(=O)(=O)C(C)C)n1)CC/C(=N\O)C2(C)C [Example 8, (E)-6-(5-chloro-4-(2-(isopropylsulfonyl)phenylamino)pyrimidine-2-ylamino)-7-methoxy-1,1-dimethyl-3,4-dihydronaphthalene-2(1H)-one oxime]	–	–	–
0.01 to 0.1	–	> 0.1	–	> 0.1	COc1cc2c(cc1Nc1ncc(Cl)c(Nc3ccccc3S(=O)(=O)C(C)C)n1)CC/C(=N\NC(=N)N)C2(C)C [Example 11, (E)-2-(6-(5-chloro-4-(2-(isopropylsulfonyl)phenylamino)pyrimidine-2-ylamino)-7-methoxy-1,1-dimethyl-3,4-dihydronaphthalene-2(1H)-yladene)hydrogencarboxamideamide]	0.01 to 0.1	–	–
> 0.1	–	> 0.1	–	> 0.1	COc1cc2c(cc1Nc1ncc(Cl)c(Nc3ccccc3S(=O)(=O)C(C)C)n1)CC/C(=N\NC(=O)OC(C)(C)C)C2(C)C [Example 12, (E)-tert-but 2-(6-(5-chloro-4-(2-(isopropylsulfonyl)phenylamino)pyrimidine-2-ylamino)-7-methoxy-1,1-dimethyl-3,4-dihydronaphthalene-2(1H)-yladene)hydrazinecarboxylate]	–	–	–
0.01 to 0.1	–	0.01 to 0.1	0.01 to 0.1	> 0.1	COc1cc2c(cc1Nc1ncc(Cl)c(Nc3ccccc3S(=O)(=O)C(C)C)n1)CC/C(=N\N)C2(C)C [Example 13, (E)-5-chloro-N2-(6-hydrazono-3-methoxy-5,5-dimethyl-5,6,7,8-tetrahydronaphthalene-2-yl)-N4-(2-(isopropylsulfonyl)phenyl)pyrimidine-2,4-diamine hydrochloride]	0.01 to 0.1	–	–
0.01 to 0.1	–	0.01 to 0.1	0.01 to 0.1	> 0.1	COc1cc2c(cc1Nc1ncc(Cl)c(Nc3ccccc3S(=O)(=O)C(C)C)n1)CC/C(=N\N1CCOCC1)C2(C)C [Example 15, (E)-5-chloro-N4-(2-(isopropylsulfonyl)phenyl)-N2-(3-methoxy-5,5-dimethyl-6-(morpholinoimino)-5,6,7,8-tetrahydronaphthalene-2-yl)pyrimidine-2,4-diamine]	0.01 to 0.1	–	–
> 0.1	–	> 0.1	–	> 0.1	COc1cc2c(cc1Nc1ncc(Cl)c(Nc3ccccc3S(=O)(=O)C(C)C)n1)C(C)(C)/C(=N/N1CCOCC1)CC2 [Example 17, (E)-5-chloro-N4-(2-(isopropylsulfonyl)phenyl)-N2-(3-methoxy-8,8-dimethyl-7-(morpholinoimino)-5,6,7,8-tetrahydronaphthalene-2-yl)pyrimidine-2,4-diamine]	> 0.1	–	–
0.01 to 0.1	–	> 0.1	–	> 0.1	COc1cc2c(cc1Nc1ncc(Cl)c(Nc3ccccc3S(=O)(=O)C(C)C)n1)C(C)(C)/C(=N/NC(=N)N)CC2 [Example 18, (E)-2-(7-(5-chloro-4-(2-(isopropylsulfonyl)phenylamino)pyrimidine-2-ylamino)-6-methoxy-1,1-dimethyl-3,4-dihydronaphthalene-2(1H)-yladene)hydrogencarboxamideamide]	0.01 to 0.1	–	–
